± gives the expanded uncertainty stated by the source.

This data set can be described thus: excess molar enthalpy (molar enthalpy of mixing); xn = mol fraction of the nth substance listed. To be noted: 308.15 K, 101 kPa, Liquid, Calvet calorimetry.

As to `C1CCNCC1` [piperidine] + C1COCCO1, the excess molar enthalpy is, setting by setting: (x2 = 0.113) 0.0853 ± 0.00263 kcal/mol; (x2 = 0.2) 0.131 ± 0.00406 kcal/mol; (x2 = 0.297) 0.167 ± 0.00526 kcal/mol; (x2 = 0.401) 0.188 ± 0.00574 kcal/mol; (x2 = 0.515) 0.195 ± 0.00598 kcal/mol; (x2 = 0.6) 0.186 ± 0.00574 kcal/mol. The excess molar enthalpy worked out at 0.159 ± 0.00502 kcal/mol (x2 = 0.703), 0.108 ± 0.00335 kcal/mol (x2 = 0.825) and 0.0655 ± 0.00215 kcal/mol (x2 = 0.9).

For the compound `C1CCNCC1` [piperidine] + C1COCCN1, the excess molar enthalpy reads like this: (x2 = 0.126) 0.0251 ± 0.000956 kcal/mol; (x2 = 0.2) 0.0375 ± 0.0012 kcal/mol; (x2 = 0.33) 0.0531 ± 0.00167 kcal/mol; (x2 = 0.435) 0.0605 ± 0.00191 kcal/mol; (x2 = 0.499) 0.0631 ± 0.00191 kcal/mol; (x2 = 0.601) 0.0626 ± 0.00191 kcal/mol. In addition, the excess molar enthalpy (x2 = 0.701) was 0.0564 ± 0.00167 kcal/mol, the excess molar enthalpy (x2 = 0.802) is 0.0447 ± 0.00143 kcal/mol and the excess molar enthalpy (x2 = 0.901) was found to be 0.0261 ± 0.000956 kcal/mol.

The values above are taken from the NIST ThermoML archive (doi:10.1021/je500088z).
